Laboratory results: patent publication US20090042958A1, “Composition and method for treating immune-mediated skin disorders” (Geneblue Corporation, priority 2006, published 2009)
Where “and” joins values, the source holds several entries; their conditions need not be identical. Equal entries are not always repeated.

Columns and labels:
Assay type in all cases: cell-based, human
PTGER3 = test: Micro array gene expression analysis, PTGER3; settings: keratinocytes, UVB irradiated; treated/untreated (Cy5/Cy3)
Procedure: (§1) Stock solutions of test materials are listed below: • 1. UTL-5d stock: 1.7 mg/ml UTL-5d in a vehicle of 50:50 EtOH:PEG 600 v/v • 2. UTR-1 stock: 3.5 mg/ml UTR-1 in a vehicle of 50:50 EtOH:PEG 600 v/v • 3. Vehicle stock: 50:50 EtOH:PEG 600
(§2) Human epidermal keratinocytes were seeded into 6-well plates and grown at 37±2° C. and 5±1% CO2 using serum free Epilife media supplemented as recommended by the manufacturer. Upon reaching confluency, the media were removed and the cells were treated overnight with Epilife media containing 1% v/v each of the stock solutions above (Vehicle stock and UTR-1 stock). Final concentration was 35 μg/ml for UTR-1. Two wells in the 6-well plate were prepared for each treatment. After applying the test material the cells were incubated for 24 hours at 37±2° C. and 5±1% CO2.
(§3) At the end of the incubation period the culture media was removed via aspiration and replaced with phosphate buffered saline. […]
(§4) The cells were washed once with PBS and then a trypsin/EDTA solution was added to release the cells, followed by the addition of trypsin neutralizing solution. […] In general, (1) the fluorescence intensity of the gene marker should be greater than the background intensity, and (2) the ratio of Cy5/Cy3 (treated/untreated) fluorescence intensity needs to be greater than 1.3 or less than 0.66 to indicate a change of ±30% in gene expression.

TNFRSF6B = test: Micro array gene expression analysis, TNFRSF6B; settings: keratinocytes, UVB irradiated; treated/untreated (Cy5/Cy3)
Procedure: as §1, §2, §3, §4

APOBEC1 = test: Micro array gene expression analysis, APOBEC1; settings: keratinocytes, UVB irradiated; treated/untreated (Cy5/Cy3)
Procedure: as §1, §2, §3, §4

PTGER2 = test: Micro array gene expression analysis, PTGER2; settings: keratinocytes, UVB irradiated; treated/untreated (Cy5/Cy3)
Procedure: as §1, §2, §3, §4

DEFA6 = test: Micro array gene expression analysis, DEFA6; settings: keratinocytes, UVB irradiated; treated/untreated (Cy5/Cy3)
Procedure: as §1, §2, §3, §4

TGFB2 = test: Micro array gene expression analysis, TGFB2; settings: keratinocytes, UVB irradiated; treated/untreated (Cy5/Cy3)
Procedure: as §1, §2, §3, §4

EPHB4 = test: Micro array gene expression analysis, EPHB4; settings: keratinocytes, UVB irradiated; treated/untreated (Cy5/Cy3)
Procedure: as §1, §2, §3, §4

TNF-α = TNF-α release (ELISA) after UVB irradiation, EpiDerm/keratinocyte model; settings: for TNF-α (pg/ml), Sample2 / TNF-α (pg/ml), sample1: TNF-α released into media after UVB ~30 mJ/cm^2; for TNF-α (pg/ml), Sample2: UVB + Vehicle 147; for TNF-α (pg/ml), sample1: UVB + Vehicle 257; for TNF-α Avg.: average of sample 1 and 2, UVB + Vehicle 202
Procedure: as §1, §2
At the end of the incubation period the culture media was removed via aspiration and replaced with phosphate buffered saline. The cells were then irradiated with ˜30 mJ/cm^2 of UVB radiation. Fresh culture media was then applied to the cells and the cells were incubated overnight at 37±2° C. and 5±1% CO2. After the incubation the cell culture media was collected to measure TNF-α release by a commercial ELISA Assay kit.

PTGIR = test: Micro array gene expression analysis, PTGIR; settings: keratinocytes, UVB irradiated; treated/untreated (Cy5/Cy3)
Procedure: as §1, §2, §3, §4

TUCAN = test: Micro array gene expression analysis, TUCAN; settings: keratinocytes, UVB irradiated; treated/untreated (Cy5/Cy3)
Procedure: as §1, §2, §3, §4

TNFSF13 = test: Micro array gene expression analysis, TNFSF13; settings: keratinocytes, UVB irradiated; treated/untreated (Cy5/Cy3)
Procedure: as §1, §2, §3, §4

JAK3 = test: Micro array gene expression analysis, JAK3; settings: keratinocytes, UVB irradiated; treated/untreated (Cy5/Cy3)
Procedure: as §1, §2, §3, §4

PTGFR = test: Micro array gene expression analysis, PTGFR; settings: keratinocytes, UVB irradiated; treated/untreated (Cy5/Cy3)
Procedure: as §1, §2, §3, §4

EFA6R = test: Micro array gene expression analysis, EFA6R; settings: keratinocytes, UVB irradiated; treated/untreated (Cy5/Cy3)
Procedure: as §1, §2, §3, §4

CDCP1 = test: Micro array gene expression analysis, CDCP1; settings: keratinocytes, UVB irradiated; treated/untreated (Cy5/Cy3)
Procedure: as §1, §2, §3, §4

ITGB6 = test: Micro array gene expression analysis, ITGB6; settings: keratinocytes, UVB irradiated; treated/untreated (Cy5/Cy3)
Procedure: as §1, §2, §3, §4

MAP3K2 = test: Micro array gene expression analysis, MAP3K2; settings: keratinocytes, UVB irradiated; treated/untreated (Cy5/Cy3)
Procedure: as §1, §2, §3, §4

PTGER1 = test: Micro array gene expression analysis, PTGER1; settings: keratinocytes, UVB irradiated; treated/untreated (Cy5/Cy3)
Procedure: as §1, §2, §3, §4

SMILES | PTGER3 Gene expression (%) (PTGER3) | TNFRSF6B Gene expression (%) (TNFRSF6B) | APOBEC1 Gene expression (%) (APOBEC1) | PTGER2 Gene expression (%) (PTGER2) | DEFA6 Gene expression (%) (DEFA6) | TGFB2 Gene expression (%) (TGFB2) | EPHB4 Gene expression (%) (EPHB4) | TNF-α (pg/ml), Sample2 (TNF-α) [pg/mL] | TNF-α (pg/ml), sample1 (TNF-α) [pg/mL] | TNF-α Avg. (TNF-α) [pg/mL] | PTGIR Gene expression (%) (PTGIR) | TUCAN Gene expression (%) (TUCAN) | TNFSF13 Gene expression (%) (TNFSF13) | JAK3 Gene expression (%) (JAK3) | PTGFR Gene expression (%) (PTGFR) | EFA6R Gene expression (%) (EFA6R) | CDCP1 Gene expression (%) (CDCP1) | ITGB6 Gene expression (%) (ITGB6) | MAP3K2 Gene expression (%) (MAP3K2) | PTGER1 Gene expression (%) (PTGER1)
Cc1cc(C(=O)Nc2ccc(Cl)cc2)no1 [UTL-5d] | 42.7 | 52.1 | 29.2 | 39.9 | 44.3 | 38.2 | 35.8 | 67 | 61 | 64 | 27.0 | 26.0 | 47.0 | 34.7% and 29.3% | 24.5 | 29.2 | 44.1 | 24.3 | 59.9 | 33.8
Cc1cc(C(=O)O)no1 [UTR-1] | 40.8 | 68.0 | 33.3 | 58.0 | 38.0 | 57.9 | 43.3 | 119 | 120 | 120 | 39.4 | 33.3 | 42.5 | 38.6% and 41.7% | 40.0 | 37.5 | 65.6 | 30.0 | 59.2 | 28.6
